Measured values reported in US9409866B2, “Pyridine-2-amides useful as CB2 agonists” (Hoffmann-La Roche Inc., priority 2012, dated 2016).

What was measured:
human CB2 receptors = human CB2 receptors (Homo sapiens (Human), UniProt P34972); assay: functional cAMP assay, CHO cells expressing human CB2; assay type: cell-based; conditions: read-out: Human CB2 EC50
Method in brief: (§1)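 Compound exposure lasted 30 min at 30 °C in IBMX (1 mM)-containing Krebs Ringer bicarbonate buffer, applied to human CB1- or CB2-expressing CHO cells. Lysates were read by time-resolved FRET cAMP detection, converted via cAMP standard curve (10 μM–0.13 nM), and EC50 values calculated.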

human CB1 receptors = human CB1 receptors (Homo sapiens (Human), UniProt P21554); assay: functional cAMP assay, CHO cells expressing human CB1; assay type: cell-based; conditions: functional cAMP assay, CHO cells expressing human CB1; read-out: Human CB1 EC50
Method in brief: as §1

human CB2 receptors, sequence (P34972 whole entry): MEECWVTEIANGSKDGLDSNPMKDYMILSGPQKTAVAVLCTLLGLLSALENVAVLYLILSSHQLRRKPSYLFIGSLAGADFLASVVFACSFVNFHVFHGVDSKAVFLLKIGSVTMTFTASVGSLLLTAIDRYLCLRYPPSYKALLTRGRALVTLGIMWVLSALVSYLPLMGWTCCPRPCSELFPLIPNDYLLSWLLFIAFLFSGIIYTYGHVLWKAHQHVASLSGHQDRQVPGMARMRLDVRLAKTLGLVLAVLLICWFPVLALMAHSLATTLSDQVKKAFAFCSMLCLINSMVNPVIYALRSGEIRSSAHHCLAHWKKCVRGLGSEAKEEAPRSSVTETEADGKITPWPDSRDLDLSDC
human CB1 receptors, sequence (P21554 whole entry): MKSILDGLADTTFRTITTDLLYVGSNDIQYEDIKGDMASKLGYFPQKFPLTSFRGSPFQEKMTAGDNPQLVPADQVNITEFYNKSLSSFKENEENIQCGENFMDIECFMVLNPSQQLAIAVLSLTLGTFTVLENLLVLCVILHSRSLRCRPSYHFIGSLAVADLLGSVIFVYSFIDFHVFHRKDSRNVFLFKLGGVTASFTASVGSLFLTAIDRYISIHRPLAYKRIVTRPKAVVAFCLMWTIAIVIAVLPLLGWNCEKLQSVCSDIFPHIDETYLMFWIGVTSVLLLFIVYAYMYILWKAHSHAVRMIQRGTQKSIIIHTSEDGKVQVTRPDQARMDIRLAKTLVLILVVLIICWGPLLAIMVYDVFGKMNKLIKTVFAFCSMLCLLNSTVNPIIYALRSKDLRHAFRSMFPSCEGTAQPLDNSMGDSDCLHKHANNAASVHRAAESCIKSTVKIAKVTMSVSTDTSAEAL

SMILES | EC50 (human CB2 receptors) | EC50 (human CB1 receptors)
Cc1nnc(C(NC(=O)c2cc(O[C@@H](C)C(F)(F)F)c(C3(F)COC3)cn2)C(C)(C)C)o1 (stereo partly drawn) [Example 175, N-[2,2-dimethyl-1-(5-methyl-1,3,4-oxadiazol-2-yl)propyl]-5-(3-fluorooxetan-3-yl)-4-[(2S)-1,1,1-trifluoropropan-2-yl]oxypyridine-2-carboxamide] | 95.5 nM | > 10000 nM
Cc1nnc(C(C)(CC2CC2)NC(=O)c2cc(O[C@@H](C)C(F)(F)F)c(C3(F)COC3)cn2)o1 (stereo partly drawn) [Example 176, N-[1-cyclopropyl-2-(5-methyl-1,3,4-oxadiazol-2-yl)propan-2-yl]-5-(3-fluorooxetan-3-yl)-4-[(2S)-1,1,1-trifluoropropan-2-yl]oxypyridine-2-carboxamide] | 442 nM | > 10000 nM
Cc1cnc(C(C)(CC2CC2)NC(=O)c2cc(OCC(F)(F)F)c(C3CC3)cn2)s1 (stereo not drawn) [Example 177, 5-cyclopropyl-N-[1-cyclopropyl-2-(5-methyl-1,3-thiazol-2-yl)propan-2-yl]-4-(2,2,2-trifluoroethoxy)pyridine-2-carboxamide] | 12.4 nM | > 10000 nM
Cc1nc(C(C)(NC(=O)c2cc(OCC(F)(F)F)c(C3CC3)cn2)C(N)=O)no1 (stereo not drawn) [Example 180, N-[1-amino-2-(5-methyl-1,2,4-oxadiazol-3-yl)-1-oxopropan-2-yl]-5-cyclopropyl-4-(2,2,2-trifluoroethoxy)pyridine-2-carboxamide] | 149 nM | > 10000 nM
Cc1nc(C(C)(NC(=O)c2cc(OCC(F)(F)F)c(C3CC3)cn2)C(=O)N(C)C)no1 (stereo not drawn) [Example 181, 5-cyclopropyl-N-[1-(dimethylamino)-2-(5-methyl-1,2,4-oxadiazol-3-yl)-1-oxopropan-2-yl]-4-(2,2,2-trifluoroethoxy)pyridine-2-carboxamide] | 2 nM | > 10000 nM
Cc1nc(C(C)(NC(=O)c2cc(OCC(F)(F)F)c(C3CC3)cn2)C(=O)N2CCC2)no1 (stereo not drawn) [Example 182, N-[1-(azetidin-1-yl)-2-(5-methyl-1,2,4-oxadiazol-3-yl)-1-oxopropan-2-yl]-5-cyclopropyl-4-(2,2,2-trifluoroethoxy)pyridine-2-carboxamide] | 5.4 nM | > 10000 nM
CNC(=O)C(C)(NC(=O)c1cc(O[C@@H](C)C(F)(F)F)c(C2(F)COC2)cn1)c1noc(C)n1 (stereo partly drawn) [Example 183, 5-(3-fluorooxetan-3-yl)-N-[1-(methylamino)-2-(5-methyl-1,2,4-oxadiazol-3-yl)-1-oxopropan-2-yl]-4-[(2S)-1,1,1-trifluoropropan-2-yl]oxypyridine-2-carboxamide] | 917 nM | > 10000 nM
CC(CC1CC1)(NC(=O)c1cc(OCC(F)(F)F)c(C2CC2)cn1)C(N)=O (stereo not drawn) [Example 186, N-(1-amino-3-cyclopropyl-2-methyl-1-oxopropan-2-yl)-5-cyclopropyl-4-(2,2,2-trifluoroethoxy)pyridine-2-carboxamide] | 343 nM | > 10000 nM
CNC(=O)C(C)(CC1CC1)NC(=O)c1cc(OCC(F)(F)F)c(C2CC2)cn1 (stereo not drawn) [Example 189, 5-cyclopropyl-N-[3-cyclopropyl-2-methyl-1-(methylamino)-1-oxopropan-2-yl]-4-(2,2,2-trifluoroethoxy)pyridine-2-carboxamide] | 292 nM | > 10000 nM
Cc1nnc(C(C)(CC2COC2)NC(=O)c2cc(O[C@@H](C)C(F)(F)F)c(C3CC3)cn2)o1 (stereo partly drawn) [Example 190, 5-cyclopropyl-N-[2-(5-methyl-1,3,4-oxadiazol-2-yl)-1-(oxetan-3-yl)propan-2-yl]-4-[(2S)-1,1,1-trifluoropropan-2-yl]oxypyridine-2-carboxamide] | 559 nM | > 10000 nM
Cc1nnc(C(C)(CC2COC2)NC(=O)c2cc(OCC(F)(F)F)c(C3CC3)cn2)o1 (stereo not drawn) [Example 191, 5-cyclopropyl-N-[2-(5-methyl-1,3,4-oxadiazol-2-yl)-1-(oxetan-3-yl)propan-2-yl]-4-(2,2,2-trifluoroethoxy)pyridine-2-carboxamide] | 707 nM | > 10000 nM
CC(C)(C)C(NC(=O)c1cc(OCC(F)(F)F)c(C2CC2)cn1)c1noc(N)n1 (stereo not drawn) [Example 192, N-[1-(5-amino-1,2,4-oxadiazol-3-yl)-2,2-dimethylpropyl]-5-cyclopropyl-4-(2,2,2-trifluoroethoxy)pyridine-2-carboxamide] | 4.4 nM | > 10000 nM
NC(=O)CC(NC(=O)c1cc(OCC(F)(F)F)c(C2CC2)cn1)C1CC1 (stereo not drawn) [Example 193, N-(3-amino-1-cyclopropyl-3-oxopropyl)-5-cyclopropyl-4-(2,2,2-trifluoroethoxy)pyridine-2-carboxamide] | 114 nM | > 10000 nM
CC(C)(C)C(NC(=O)c1cc(OCC(F)(F)F)c(C2CC2)cn1)C(N)=O (stereo not drawn) [Example 194, N-(1-amino-3,3-dimethyl-1-oxobutan-2-yl)-5-cyclopropyl-4-(2,2,2-trifluoroethoxy)pyridine-2-carboxamide] | 15.1 nM | > 10000 nM
CN(C)C(=O)C(NC(=O)c1cc(OCC(F)(F)F)c(C2CC2)cn1)C(C)(C)C (stereo not drawn) [Example 195, 5-cyclopropyl-N-[1-(dimethylamino)-3,3-dimethyl-1-oxobutan-2-yl]-4-(2,2,2-trifluoroethoxy)pyridine-2-carboxamide] | 3.4 nM | > 10000 nM
CC(C)(C)C(NC(=O)c1cc(OCC(F)(F)F)c(C2CC2)cn1)C(=O)N1CCC1 (stereo not drawn) [Example 196, N-[1-(azetidin-1-yl)-3,3-dimethyl-1-oxobutan-2-yl]-5-cyclopropyl-4-(2,2,2-trifluoroethoxy)pyridine-2-carboxamide] | 1.2 nM | > 10000 nM
CC(C)(C)C(NC(=O)c1cc(OCC(F)(F)F)c(C2CC2)cn1)C(=O)N1CC(F)(F)C1 (stereo not drawn) [Example 197, 5-cyclopropyl-N-[1-(3,3-difluoroazetidin-1-yl)-3,3-dimethyl-1-oxobutan-2-yl]-4-(2,2,2-trifluoroethoxy)pyridine-2-carboxamide] | 7.6 nM | > 10000 nM
CC(C)(C)C(NC(=O)c1cc(OCC(F)(F)F)c(C2CC2)cn1)C(=O)N1CCC12COC2 (stereo not drawn) [Example 198, 5-cyclopropyl-N-[3,3-dimethyl-1-(6-oxa-1-azaspiro[3.3]heptan-1-yl)-1-oxobutan-2-yl]-4-(2,2,2-trifluoroethoxy)pyridine-2-carboxamide] | 36.4 nM | > 10000 nM
C[C@H](Oc1cc(C(=O)NC(C(N)=O)C(C)(C)C)ncc1C1CC1)C(F)(F)F (stereo partly drawn) [Example 199, N-(1-amino-3,3-dimethyl-1-oxobutan-2-yl)-5-cyclopropyl-4-[(2S)-1,1,1-trifluoropropan-2-yl]oxypyridine-2-carboxamide] | 7.8 nM | > 10000 nM
CNC(=O)C(NC(=O)c1cc(O[C@@H](C)C(F)(F)F)c(C2CC2)cn1)C(C)(C)C (stereo partly drawn) [Example 200, 5-cyclopropyl-N-[3,3-dimethyl-1-(methylamino)-1-oxobutan-2-yl]-4-[(2S)-1,1,1-trifluoropropan-2-yl]oxypyridine-2-carboxamide] | 2.6 nM | > 10000 nM
C[C@H](Oc1cc(C(=O)NC(C(=O)N(C)C)C(C)(C)C)ncc1C1CC1)C(F)(F)F (stereo partly drawn) [Example 201, 5-cyclopropyl-N-[1-(dimethylamino)-3,3-dimethyl-1-oxobutan-2-yl]-4-[(2S)-1,1,1-trifluoropropan-2-yl]oxypyridine-2-carboxamide] | 2.4 nM | > 10000 nM
